Experimental findings from patent US20090252834A1, “Compositions comprising glucose anti-metabolites” (priority 2004, published 2009) are described below.

The assay concerns mice. As to the kind of experiment: Mice fed a diet containing mannoheptulose. The class given is in vivo. The source says:
Both of these endpoints are closely related to altered glucose and/or carbohydrate metabolism, similar to that elicited by dietary caloric restriction.

The structures appear in SMILES notation.

Regarding `O=C(CO)[C@@H](O)[C@@H](O)[C@H](O)[C@H](O)CO` [mannoheptulose], the body weight entry was “slightly reduced body weight” and the plasma insulin levels result is “reduced plasma insulin levels”.
